Results from patent US8217085B2 (priority 2009, dated 2012).
Like-named read-outs stand apart in the source and are kept apart here.

Key:
[1] = system: ATCC strain 43300 Staphylococcus aureus; settings: methicillin alone, 12 μg/ml, 30 μg/ml and 60 μg/ml
Method: Additional antibiotic was added every 24 hours. The growth periods tested were 24 (FIG. 5), 48, 72, 96 and 120 hours.
USP<51> Antimicrobial Effectiveness protocol was used as the template experimental paradigm. […] All concentrations were plated out to the 10^−7 dilutions to ascertain cfu/ml. […] Additional antibiotic was added at the initial concentration every 24 hours.
ATCC strain 43300 Staphylococcus aureus was streaked out for isolations. An isolated colony was chosen, streaked again and incubated. Isolate was chosen and then diluted to a McFarland standard of one. The estimated value was then taken to inoculate tubes containing growth media and 12, 30 or 60 μg/ml methicillin with approximately 10^5 cfu/ml. These tubes were incubated and plated for counting cfu.
Material was calculated on a 10 ml volume. Sterile methicillin was added to each experimental condition to a final concentration of 12, 30 or 60 μg/ml antibiotic. Lactose Broth positive controls both with and without the 12 μg/ml, 30 μg/ml, 60 μg/ml antibiotic were inoculated with MRSA. […] Tubes were set up in singlet, but plated in triplicate, as described below.
All tubes were then inoculated with a dilution of the selected ATCC strain 43300 Staphylococcus aureus clone giving a final level of colony forming units of 1.49×10^5/ml (log=5.17). The tubes were incubated at 25° C. and mixed periodically. Antibiotic was re-inoculated every 24 hours at the initial concentration to maintain pressure on the organism. Plating was done at 24, 48, 72, and 120 hours. Each condition was plated by diluting 1 ml of growth material into 9 ml of MLB diluent broth. […] This mixture was serial diluted down to 10^−7 with 1 ml placed in triplicate in a sterile petri dish at each dilution point. 20 mls of TSA was added to each dilution, swirled and allowed to solidify. All dilutions were placed in a 35° C. incubator for 24 to 72 hours. Bacterial colonies on each plate were counted and the average taken then changed into log format.

[2] = system: ATCC strain 43300 Staphylococcus aureus; settings: oxacillin alone, 12 μg/ml, 30 μg/ml and 60 μg/ml
Method: Additional antibiotic was added every 24 hours.
USP<51> Antimicrobial Effectiveness protocol was used as the template experimental paradigm. […] All concentrations were plated out to the 10^−7 dilutionsto ascertain cfu/ml. […] Additional antibiotic was added at the initial concentration every 24 hours.
ATCC strain 43300 Staphylococcus aureus was streaked out for isolations. An isolated colony was chosen, streaked again and incubated. Isolate was chosen and then diluted to a McFarland standard of one. The estimated value was then taken to inoculate tubes containing growth media and 12, 30 or 60 μg/ml oxacillin with approximately 10^5 cfu/ml. These tubes were incubated and plated for counting cfu.
Material was calculated on a 10 ml volume. Sterile oxacillin was added to each experimental condition to a final concentration of 12, 30 or 60 μg/ml antibiotic.
All tubes were then inoculated with a dilution of the selected ATCC strain 43300 Staphylococcus aureus clone giving a final level of colony forming units of 3.3×10^5/ml (log=5.52). The tubes were incubated at 25° C. and mixed periodically. Antibiotic was re-inoculated every 24 hours at the initial concentration to maintain pressure on the organism. Plating was done at 24, 48, 72, and 120 hours. Each condition was plated by diluting 1 ml of growth material into 9 ml of MLB diluent broth. […] This mixture was serial diluted down to 10^−7 with 1 ml placed in triplicate in a sterile petri dish at each dilution point. 20 mls of TSA was added to each dilution, swirled and allowed to solidify. All dilutions were placed in a 35° C. incubator for 24 to 72 hours. Bacterial colonies on each plate were counted and the average taken then changed into log format. Any cfu/ml observed greater than 3.3×10^5 (log=5.5) were recorded as >3.3×10^5.

[3] = system: drug sensitive Staphylococcus aureus; settings: Etest system; cited from earlier work

| Structure (SMILES) | change in colony forming units from initial inoculum [1] | change in colony forming units from initial inoculum [2] | MIC [3] [µg/mL] |
| --- | --- | --- | --- |
| COc1cccc(OC)c1C(=O)N[C@@H]1C(=O)N2[C@@H]1SC(C)(C)[C@@H]2C(=O)O [methicillin, reference compound] | no significant decrease in colony forming units |  |  |
| Cc1onc(-c2ccccc2)c1C(=O)N[C@@H]1C(=O)N2[C@@H]1SC(C)(C)[C@@H]2C(=O)O [oxacillin, reference compound] |  | no significant decrease in colony forming units | ≤ 2 |
